Results published in ChEMBL document CHEMBL5131560, “Discovery of Heteroaryl Urea Isosteres for Formyl Peptide Receptor 2 Agonists” (ACS Med Chem Lett, 2022).

Assays:
[1] = biological target: T1, N-formyl peptide receptor 2 (Homo sapiens, UniProt P25090); assay: Agonist activity at human FPR2 overexpressing CHO cells assessed as reduction in intracellular cAMP level incubated for 30 mins by HTRF assay; format: functional, cell-based
T1 sequence (P25090 whole entry): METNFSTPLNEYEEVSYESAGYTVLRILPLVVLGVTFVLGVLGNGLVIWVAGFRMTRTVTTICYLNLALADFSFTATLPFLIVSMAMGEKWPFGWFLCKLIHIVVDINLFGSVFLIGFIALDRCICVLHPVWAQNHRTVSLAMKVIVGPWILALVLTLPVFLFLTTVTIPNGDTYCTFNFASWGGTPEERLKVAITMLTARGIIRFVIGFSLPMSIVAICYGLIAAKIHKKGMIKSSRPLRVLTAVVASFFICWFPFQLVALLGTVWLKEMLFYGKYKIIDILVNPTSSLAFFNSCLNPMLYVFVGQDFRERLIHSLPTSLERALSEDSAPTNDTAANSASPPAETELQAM

[2] = AUC (0 to infinity) in C57BL6 mouse at 3 mg/kg, po and measured upto 24 hrs by LC-MS/MS analysis; format: ADME, organism-based; parameters: dose 3 mg/kg, time < 24 hrs, route po; settings: in vivo
[3] = Permeability of the compound at pH 5.5 by PAMPA assay; format: ADME; settings: read-out: permeability
Peritoneal macrophage = assay: Induction of phagocytosis in mouse peritoneal macrophages assessed as increase in FITC signal preincubated with compound for 15 mins followed by zymosan addition and measured after 1 hr by Trypan Blue based FITC analysis
[4] = Protein binding in human assessed as free fraction; format: ADME

Question: With `COc1cc(F)c([C@@H]2CNC(=O)[C@H]2c2nc3c(Cl)cccc3[nH]2)c(F)c1` as the molecule, how does the EC50 [1] read?
Answer: Its EC50 is greater than 10000 nM.

Question: Which EC50 [1] does the source give for `COc1cc(F)c([C@@H]2CNC(=O)[C@H]2Nc2nc(-c3ccc(Cl)cc3)no2)c(F)c1` here?
Answer: The EC50 was 3500 nM.

Question: For `COc1cc(F)c([C@@H]2CNC(=O)[C@H]2Nc2nnc(-c3ccccc3)o2)c(F)c1`, which EC50 [1] is on record?
Answer: Its EC50 is 250 nM.

Question: Which EC50 [1] does the source give for `COc1ccc([C@@H]2CNC(=O)[C@H]2Nc2nnc(-c3ccc(Cl)cc3)o2)cc1` here?
Answer: Its EC50 is 160 nM.

Question: Which EC50 [1] does the source give for `COc1cc(F)c([C@@H]2CNC(=O)[C@H]2Nc2nnc(-c3ccc(Cl)cc3)s2)c(F)c1` here?
Answer: The EC50 was 37 nM.

Question: For `COc1cc(F)c([C@@H]2CNC(=O)[C@H]2Nc2noc(-c3ccc(Cl)cc3)n2)c(F)c1`, which EC50 [1] is on record?
Answer: Its EC50 is 2500 nM.

Question: Which AUC(0-inf) [2] does the source give for `COc1cc(F)c([C@@H]2CNC(=O)[C@H]2NC(=O)Nc2ccccc2)c(F)c1` [BMS-986235] here?
Answer: Its AUC(0-inf) is 5.6 µM·h.

Question: And the Papp [3]?
Answer: Its Papp is 44 ×10⁻⁶ cm/s.

Question: What about the EC50 (Peritoneal macrophage) of the same molecule?
Answer: Its EC50 is less than 1 nM.

Question: What about the fraction unbound [4] of the same molecule?
Answer: Its fraction unbound is 0.127.

Question: With `COc1cc(F)c([C@@H]2CNC(=O)[C@H]2Nc2nnc(-c3ccccc3Cl)o2)c(F)c1` as the molecule, how does the EC50 [1] read?
Answer: The EC50 was greater than 10000 nM.

Question: For `COc1cc(F)c([C@@H]2CNC(=O)[C@H]2Nc2cc(-c3ccc(Cl)cc3)n(C)n2)c(F)c1`, which EC50 [1] is on record?
Answer: Its EC50 is greater than 10000 nM.

Question: With `COc1cc(F)c([C@@H]2CNC(=O)[C@H]2c2nc3cc(Cl)cnc3[nH]2)c(F)c1` as the molecule, how does the EC50 [1] read?
Answer: Its EC50 is 40 nM.

Question: Which EC50 [1] does the source give for `COc1cc(F)c([C@@H]2CNC(=O)[C@H]2c2nc3ccccc3[nH]2)c(F)c1` here?
Answer: The EC50 was 680 nM.

Question: For `COc1cc(F)c([C@@H]2CNC(=O)[C@H]2Nc2nnc(-c3ccc(Cl)cc3F)o2)c(F)c1`, which EC50 [1] is on record?
Answer: The EC50 was 840 nM.

Question: For `COc1ccc(-c2nnc(N[C@@H]3C(=O)NC[C@H]3c3c(F)cc(OC)cc3F)o2)cc1`, which EC50 [1] is on record?
Answer: Its EC50 is 3700 nM.

Question: For `COc1cc(F)c([C@@H]2CNC(=O)[C@H]2Nc2nnc(-c3cccc(Cl)c3)o2)c(F)c1`, which EC50 [1] is on record?
Answer: Its EC50 is greater than 10000 nM.

Question: With `COc1cc(F)c([C@@H]2CNC(=O)[C@H]2Nc2nnc(-c3ccc(OC(F)(F)F)cc3)o2)c(F)c1` as the molecule, how does the EC50 [1] read?
Answer: Its EC50 is 53 nM.

Question: With `COc1cc(F)c([C@@H]2CNC(=O)[C@H]2c2nc3cc(Cl)ccc3[nH]2)c(F)c1` as the molecule, how does the EC50 [1] read?
Answer: The EC50 was 110 nM.

Question: What does the source list for `COc1cc(F)c([C@@H]2CNC(=O)[C@H]2Nc2cc(-c3ccc(Cl)cc3)on2)c(F)c1`?
Answer: AUC(0-inf) [2]: 15 µM·h; Papp [3]: 110 ×10⁻⁶ cm/s; fraction unbound [4]: 0.005

Question: Which EC50 [1] does the source give for `COc1cc(F)c([C@@H]2CNC(=O)[C@H]2Nc2nnc(-c3ccc(Cl)cc3)o2)c(F)c1` here?
Answer: Its EC50 is 32 nM.

Question: And the AUC(0-inf) [2]?
Answer: Its AUC(0-inf) is 8.4 µM·h.

Question: And the Papp [3]?
Answer: Its Papp is 97 ×10⁻⁶ cm/s.

Question: What about the fraction unbound [4] of the same molecule?
Answer: Its fraction unbound is 0.015.

Question: Which EC50 [1] does the source give for `COc1cc(F)c([C@@H]2CNC(=O)[C@H]2c2nc3cc(OC)ccc3[nH]2)c(F)c1` here?
Answer: The EC50 was greater than 5000 nM.

Question: For `COc1cc(F)c([C@@H]2CNC(=O)[C@H]2Nc2cc(-c3ccc(Cl)cc3)no2)c(F)c1`, which EC50 [1] is on record?
Answer: Its EC50 is 2200 nM.

Question: For `COc1cc(F)c([C@@H]2CNC(=O)[C@H]2c2nc3nc(Cl)ccc3[nH]2)c(F)c1`, which EC50 [1] is on record?
Answer: The EC50 was 2300 nM.

Question: Which EC50 [1] does the source give for `COc1cc(F)c([C@@H]2CNC(=O)[C@H]2Nc2cc(-c3ccc(Cl)cc3)[nH]n2)c(F)c1` here?
Answer: The EC50 was greater than 10000 nM.

Question: Which EC50 [1] does the source give for `COc1ccc([C@@H]2CNC(=O)[C@H]2Nc2nnc(-c3ccc(Cl)cc3)o2)c(F)c1` here?
Answer: Its EC50 is 40 nM.

Question: For `COc1cc(F)c([C@@H]2CNC(=O)[C@H]2Nc2nc3ccccc3[nH]2)c(F)c1`, which EC50 [1] is on record?
Answer: The EC50 was 1300 nM.

Question: With `COc1cc(F)c([C@@H]2CNC(=O)[C@H]2Nc2ncc(-c3ccc(Cl)cc3)o2)c(F)c1` as the molecule, how does the EC50 [1] read?
Answer: The EC50 was 250 nM.
